Test [1] has as its system HBeAg level in HepDES19 cells (surrogate marker for HBV cccDNA). Kind of test: Engineered HepDES19 primary screen assay (HBeAg as surrogate marker for cccDNA). In kind it is cell-based. The conditions noted are these: Hepatitis B virus, read-out: IC50 (HBeAg level, HepDES19 primary screen assay). An excerpt:
The assay was employed to screen for novel cccDNA inhibitors. HepDES19 is a cccDNA-producing cell line. In this cell line, HBeAg in the cell culture supernatant as surrogate marker, as HBeAg production depends on cccDNA level and activity. HepDES19 is an engineered cell line which contains a 1.1 unit length HBV genome, and pgRNA transcription from the transgene is controlled by Tetracycline (Tet). In the absence of Tet, pgRNA transcription will be induced, but HBV e antigen (HBeAg) could not be produced from this pgRNA due to very short leader sequence before the HBeAg start codon and the start codon is disrupted. Only after cccDNA is formed, the missing leader sequence and start codon mutation would be restored from the 3′-terminal redundancy of pgRNA, and then HBeAg could be synthesized. Therefore, HBeAg could be used as a surrogate marker for cccDNA (Zhou, T. et al., Antiviral Res.(2006), 72(2), 116-124; Guo, H. et al., J. Virol. (2007), 81(22), 12472-12484).
HepDES19 cells were seeded at 2×10^6 cells per T150 flask and cultured with the culture medium (Dulbecco's Modified Eagle Medium: Nutrient Mixture F-12 [DMEM-F12, Gibco Cat. 11320-82], 10% Fetal Bovine Serum [FBS, Clontech Cat. 631101], 0.1 mM Non-Essential Amino Acids Solution [NEAA, Gibco Cat. 11140-050], 50 μg/mL Penicillin-Streptomycin [PS, Invitrogen Cat. 15140-163], 500 μg/mL Geneticin [G418, Invitrogen Cat. 10131-027]) containing 3 μg/mL Tet (Sigma, Cat. 87128) for 5 days. Cells were then seeded at 4×10^6 cells per T150 in the same culture medium as described above in the absence of Tet for 8 days. Cells were then harvested and frozen at density of 2×10^6 cells per mL. For compound testing, the frozen cells were thawed and seeded into 96-well plates at a density of 6 ×10^4 cells per well. At 24hours after seeding, half log serial dilutions of compounds made with Dimethyl sulfoxide (DMSO, Sigma, Cat. D2650) were further diluted with the same culture medium as described above before they were added to the cells to reach desired final compound concentrations and 1% DMSO concentration. Plates were then incubated at 37° C. for another 5 days before measurement of HBeAg level and cell viability. Intracellular HBeAg level were measured with enzyme-linked immunosorbent assay (ELISA) kit (Shanghai Kehua Diagnostic Medical Products Co., Ltd). Cell viability was assessed using Cell Counting Kit-8 (DonJindo, Cat. CK04-20). IC50 values were derived from the dose-response curve using 4 parameter logistic curve fit method.
The compounds of the present invention were tested for their capacity to inhibit extracellular HBeAg level as described herein.

Test [2] relates to HBsAg in HBV-infected primary human hepatocytes. Nature of the test: Cryopreserved primary human hepatocytes (PHH) HBV infection assay, extracellular HBsAg. In kind it is cell-based. The following applies: Hepatitis B virus, Hepatocyte, 216 h, read-out: HBsAg IC50. As to the method:
This assay is used to confirm the anti-HBV effect of the compounds in HBV PHH infection assay. Cryopreserved PHH (BioreclamationlVT, Lot YJM) was thawed at 37° C. and gently transferred into pre-warmed InVitroGRO HT medium (BioreclamationIVT, Cat. S03317). The mixture was centrifuged at 70 relative centrifugal force (RCF) for 3 minutes at RT, and the supernatant was discarded. Pre-warmed InVitroGRO CP medium (BioreclamationlVT, Cat# S03316) was added to the cell pellet to gently re-suspend cells. The cells were seeded at the density of 5.8×10^4 cells per well to collagen I coated 96-well plate (Gibco, Cat. A1142803) with the InVitroGRO CP medium. All plates were incubated at 37° C. with 5% CO2 and 85% humidity.
At 20 hours after plating, the medium was changed to PHH culture medium (Dulbecco's Modified Eagle Medium (DMEM)/F12 (1:1) (Gibco, Cat. 11320-033), 10% fetal bovine serum (Gibco Cat. 10099141), 100 U/mL penicillin, 100 μg/mL streptomycin (Gibco, Cat. 151401-122), 5 ng/mL human epidermal growth factor (Invitrogen Cat. PHG0311L), 20 ng/mL dexamethasone (Sigma, Cat. D4902) and 250 ng/mL human recombinant insulin (Gibco, Cat. 12585-014)). And the cells were incubated at 37° C. with 5% CO2 and 85% humidity for 4 hours. The medium was then changed to pre-warmed PHH culture medium containing 4% polyethylene glycol (PEG) MW8000 (Sigma, Cat. P1458-50ML) and 1% DMSO (Sigma, Cat. D2650). 5.8×10^6 genomic equivalents of HBV were added into the medium.
At 24 hours post-infection, the cells were gently washed with PBS and refreshed with PHH culture medium supplemented with 1% DMSO, and 0.25 mg/mL Matrix gel (Corning, Cat. 356237) at 200 μL per well. All plates were immediately placed in at 37° C. CO2 incubator.
24 hours later, serial dilutions of compounds made with DMSO were further diluted with the same culture medium (PHH culture medium supplemented with 1% DMSO and 0.25 mg/mL Matrix gel as described above) before they were added to the cells to reach desired final compound concentrations and 1% DMSO concentration. The medium containing the compounds were refreshed every three days.
At 9 days post-compound treatment, extracellular HBsAg level were measured with Chemiluminescence Immuno Assay (CLIA) kit (Autobio, HBsAg Quantitative CLIA).
HBsAg IC50 values were derived from the dose-response curve using 4 parameter logistic curve fit method. The compounds of formula (I) have HBsAg IC50<20 μM, particularly <1 μM.

The mark [3] stands for this setting: 120 h, HepDES19 cells, 5 days incubation with compound, HBeAg ELISA.

This is an account of results in patent publication US20220388969A1, “SUBSTITUTED 3,4-DIHYDROQ[…] THE TREATMENT AND PROPHYLAXIS OF HEPATITIS B VIRUS INFECTION” (priority 2019, published 2022).

pIC50: −log10 of the molar value. Like-named read-outs stand apart in the source and are kept apart here.

Take `O=C(O)C1NC(c2ccc(Cl)cc2)=Nc2c(Cl)cccc21` (centres unmarked) [Example 3, 8-chloro-2-(4-chlorophenyl)-3,4-dihydroquinazoline-4-carboxylic Acid]: the values for the pIC50 in test [1] (setting [3]) and in test [2] were 4.99 and 5.82, respectively. On to `O=C(C1NC(c2ccc(Br)cc2)=Nc2cc(C(F)(F)F)ccc21)N1CCOCC1` (centres unmarked) [Example 17, [2-(4-bromophenyl)-7-(trifluoromethyl)-3,4-dihydroquinazolin-4-yl]-morpholino-methanone], for which, in test [1] (setting [3]), the negative logarithm of the IC50 (pIC50) (as a rule, the IC50 on a negative log10 scale, so that one unit is a factor of ten) is 5.78. The same measure, in the same setting: to `CC1NC(c2ccc(OCCOCC(=O)O)cc2)=Nc2cc(C(F)(F)F)ccc21` (centres unmarked) [Example 20, 2-[2-[4-[4-methyl-7-(trifluoromethyl)-3,4-dihydroquinazolin-2-yl]phenoxy]ethoxy]acetic Acid] belongs 5.70; to `OCC1NC(c2ccc(Br)cc2)=Nc2c(Cl)cccc21` (centres unmarked) [Example 38, [2-(4-bromophenyl)-8-chloro-3,4-dihydroquinazolin-4-yl]methanol], 5.27.

`CC1(C(=O)O)NC(c2ccc(Br)cc2)=Nc2c(Cl)cccc21` (centres unmarked) [Example 11, 2-(4-bromophenyl)-8-chloro-4-methyl-3H-quinazoline-4-carboxylic Acid]: in test [1] (setting [3]), the pIC50 is 6.89. Take `CC1NC(c2ccc(Br)cc2OCCOC2CC(C(=O)O)C2)=Nc2c(Cl)cccc21` (centres unmarked) [Example 37, 3-[2-[5-bromo-2-(8-chloro-4-methyl-3,4-dihydroquinazolin-2-yl)phenoxy]ethoxy]cyclobutanecarboxylic Acid]: the pIC50 in test [1] (setting [3]) was 5.71. Turning to `CC1NC(c2ccc(OCCO[C@H]3C[C@@H](C(=O)O)C3)cc2)=Nc2c(Cl)cccc21` (stereo partly drawn) [Example 21, cis-3-[2-[4-(8-chloro-4-methyl-3,4-dihydroquinazolin-2-yl)phenoxy]ethoxy]cyclobutanecarboxylic Acid], in test [1] (setting [3]), the pIC50 was 5.99. Still for that read-out and setting: to `CC1(C)NC(c2ccc(Br)cc2)=Nc2c(Cl)cccc21` [Example 34, 2-(4-bromophenyl)-8-chloro-4,4-dimethyl-3H-quinazoline hydrofluoride] belongs 5.24; to `CC1NC(c2cccc(Br)c2)=Nc2cc(C(F)(F)F)ccc21` (centres unmarked) [Example 33, 2-(3-bromophenyl)-4-methyl-7-(trifluoromethyl)-3,4-dihydroquinazoline], 6.07; to `CC1NC(c2ccc(OCCO)cc2)=Nc2c(Cl)cccc21` (centres unmarked) [Example 28, 2-[4-(8-chloro-4-methyl-3,4-dihydroquinazolin-2-yl)phenoxy]ethanol], 5.32. Same read-out and setting: to `COc1ccc(C2=Nc3c(Cl)cccc3C(C(N)=O)N2)cc1` (centres unmarked) [Example 14, 8-chloro-2-(4-methoxyphenyl)-3,4-dihydroquinazoline-4-carboxamide] belongs 5.61.

Turning to `NC(=O)C1NC(c2cccc(Br)c2)=Nc2cc(C(F)(F)F)ccc21` (centres unmarked) [Example 15, 2-(3-bromophenyl)-7-(trifluoromethyl)-3,4-dihydroquinazoline-4-carboxamide], the pIC50 in test [1] (setting [3]) is 6.59. With `OCCOc1ccc(C2=Nc3c(Cl)cccc3CN2)cc1` [Example 27, 2-[4-(8-chloro-3,4-dihydroquinazolin-2-yl)phenoxy]ethanol], in test [1] (setting [3]), the pIC50 is 4.94. Regarding `O=C(NCCCl)C1NC(c2ccc(Br)cc2)=Nc2c(Cl)cccc21` (centres unmarked) [Example 18, 2-(4-bromophenyl)-8-chloro-N-(2-chloroethyl)-3,4-dihydroquinazoline-4-carboxamide], in test [1] (HepDES19, 120 h), the pIC50 was 5.59. As for `CC1NC(c2ccc(OCCOCC(=O)O)cc2)=Nc2c(Cl)cccc21` (centres unmarked) [Example 23, 2-[2-[4-(8-chloro-4-methyl-3,4-dihydroquinazolin-2-yl)phenoxy]ethoxy]acetic Acid], the negative logarithm of the IC50 (pIC50) in test [1] (setting [3]) was 5.75. `CC1c2cccc(Cl)c2N=C(c2ccc(OCCOCC(=O)O)cc2)N1C` (centres unmarked) [Example 26, 2-[2-[4-(8-chloro-3,4-dimethyl-4H-quinazolin-2-yl)phenoxy]ethoxy]acetic acid]: in test [1] (setting [3]), the negative-log IC50 (pIC50) was 5.26. In the case of `CCOc1ccc(C2=Nc3c(Cl)cccc3C(C(=O)O)N2)cn1` (centres unmarked) [Example 9, 8-chloro-2-(6-ethoxy-3-pyridyl)-3,4-dihydroquinazoline-4-carboxylic Acid], the pIC50 in test [1] (setting [3]) was 6.35. The same measure, in the same setting: to `CC1NC(n2cnc(Br)c2)=Nc2cc(C(F)(F)F)ccc21` (centres unmarked) [Example 30, 2-(4-bromoimidazol-1-yl)-4-methyl-7-(trifluoromethyl)-3,4-dihydroquinazoline] belongs 6.11; to `Clc1cccc2c1N=C(c1ccc(Br)cc1)NC2C1CC1` (centres unmarked) [Example 35, 2-(4-bromophenyl)-8-chloro-4-cyclopropyl-3,4-dihydroquinazoline], 6.39; to `CC1NC(c2nc(Br)cs2)=Nc2c(Cl)cccc21` (centres unmarked) [Example 31, 4-bromo-2-(8-chloro-4-methyl-3,4-dihydroquinazolin-2-yl)thiazole], 5.69.

As for `O=C(O)C1NC(c2ccc(N3CCCC3)nc2)=Nc2c(Cl)cccc21` (centres unmarked) [Example 10, 8-chloro-2-(6-pyrrolidin-1-yl-3-pyridyl)-3,4-dihydroquinazoline-4-carboxylic Acid], in test [1] (setting [3]), the negative logarithm of the IC50 (pIC50) was 7.30. Same read-out and setting: to `CC1c2ccc(C(F)(F)F)cc2N=C(c2cccc(Br)c2)N1C` (centres unmarked) [Example 24, 2-(3-bromophenyl)-3,4-dimethyl-7-(trifluoromethyl)-4H-quinazoline] belongs 5.68; to `COc1ccc2c(c1)CCN(C1=Nc3c(Cl)cccc3C(C)N1)C2=O` (centres unmarked) [Example 29, 2-(8-chloro-4-methyl-3,4-dihydroquinazolin-2-yl)-6-methoxy-3,4-dihydroisoquinolin-1-one], 7.57. On the same count and under the same terms, the value for `COc1ccc(C2=Nc3c(Cl)cccc3C(C(=O)O)N2)cn1` (centres unmarked) [Example 8, 8-chloro-2-(6-methoxy-3-pyridyl)-3,4-dihydroquinazoline-4-carboxylic Acid] was 5.04.

With `CC1c2ccc(C(F)(F)F)cc2N=C(c2cccc(Br)c2)N1CCO` (centres unmarked) [Example 25, 2-[2-(3-bromophenyl)-4-methyl-7-(trifluoromethyl)-4H-quinazolin-3-yl]ethanol], in test [1] (setting [3]), the pIC50 was 5.02.
